Results taken from the supplement of paper PMC10307832.

What was measured:
Experiment in all cases: relative viability (nuclei count vs DMSO), 5 days (fraction); higher = more cells survive
NCI-H2087 = tested on: NCI-H2087
Procedure, shortened: (§1)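 Values are medians from duplicate plates. Each reflects relative viability, defined as the nuclei count of treated wells over that of vehicle wells. Lung cancer cell lines in 1536-well plates were pin-tool dosed one day after seeding with one drug alone or with a fixed anchor-drug dose plus five library-drug doses (not always all listed) in √10 steps, then fixed, stained and imaged at 4× after 5 days.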

NCI-H596 = tested on: NCI-H596
Procedure, shortened: as §1

NCI-H1666 = tested on: NCI-H1666
Procedure, shortened: as §1

HCC-78 = tested on: HCC-78
Procedure, shortened: as §1

LCLC-97TM1 = tested on: LCLC-97TM1
Procedure, shortened: as §1

HCC-15 = tested on: HCC-15
Procedure, shortened: as §1

NCI-H1944 = tested on: NCI-H1944
Procedure, shortened: as §1

NCI-H1651 = tested on: NCI-H1651
Procedure, shortened: as §1

NCI-H2342 = tested on: NCI-H2342
Procedure, shortened: as §1

NCI-H650 = tested on: NCI-H650
Procedure, shortened: as §1

BEN = tested on: BEN
Procedure, shortened: as §1

LC-2-ad = tested on: LC-2-ad
Procedure, shortened: as §1

PC-3 [JPC-3] = tested on: PC-3 [JPC-3]
Procedure, shortened: as §1

NCI-H838 = tested on: NCI-H838
Procedure, shortened: as §1

NCI-H322M = tested on: NCI-H322M
Procedure, shortened: as §1

ChaGo-K-1 = tested on: ChaGo-K-1
Procedure, shortened: as §1

LXF-289 = tested on: LXF-289
Procedure, shortened: as §1

NCI-H358 = tested on: NCI-H358
Procedure, shortened: as §1

LK-2 = tested on: LK-2
Procedure, shortened: as §1

LU99A = tested on: LU99A
Procedure, shortened: as §1

`O=C(O)c1ccc(-c2c[nH]c3ncc(-c4ccccc4)cc23)cc1C1CCCC1` + NC(=O)Nc1cc(-c2cccc(F)c2)sc1C(=O)N[C@H]1CCCNC1 [AZD7762] (partner 0.2 µM) gave a relative viability (NCI-H2087; first compound 0.04 µM) of 1.29, a relative viability (NCI-H2087; first compound 0.1265 µM) of 1.44 and a relative viability (NCI-H2087; first compound 0.4 µM) of 1.23. The relative viability (NCI-H2087; first compound 1.265 µM) was 1.11, the relative viability (NCI-H596; first compound 0.04 µM) was 1.05 and the relative viability (NCI-H596; first compound 0.1265 µM) was 1.21. It also gave a relative viability (NCI-H596; first compound 0.4 µM) of 1.08, a relative viability (NCI-H596; first compound 1.265 µM) of 1.17 and a relative viability (NCI-H1666; first compound 0.04 µM) of 0.798. For the same molecule, the relative viability (NCI-H1666; first compound 0.1265 µM) was 1, the relative viability (NCI-H1666; first compound 0.4 µM) was 0.875 and the relative viability (NCI-H1666; first compound 1.265 µM) was 0.728. The relative viability (HCC-78; first compound 0.1265 µM) was 0.734, the relative viability (HCC-78; first compound 0.4 µM) was 0.779 and the relative viability (HCC-78; first compound 1.265 µM) was 0.712. The relative viability (LCLC-97TM1; first compound 0.04 µM) was 0.278, the relative viability (LCLC-97TM1; first compound 0.1265 µM) was 0.368 and the relative viability (LCLC-97TM1; first compound 0.4 µM) was 0.302. It also gave a relative viability (LCLC-97TM1; first compound 1.265 µM) of 0.268, a relative viability (HCC-15; first compound 0.04 µM) of 1.22 and a relative viability (HCC-15; first compound 0.1265 µM) of 1.45. It also gave a relative viability (HCC-15; first compound 0.4 µM) of 1.42, a relative viability (HCC-15; first compound 1.265 µM) of 1.03 and a relative viability (NCI-H1944; first compound 0.04 µM) of 0.464. The relative viability (NCI-H1944; first compound 0.1265 µM) was 0.622, the relative viability (NCI-H1944; first compound 0.4 µM) was 0.637 and the relative viability (NCI-H1944; first compound 1.265 µM) was 0.802. It also gave a relative viability (NCI-H1651; first compound 0.04 µM) of 0.326, a relative viability (NCI-H1651; first compound 0.1265 µM) of 0.56 and a relative viability (NCI-H1651; first compound 0.4 µM) of 0.551. The relative viability (NCI-H1651; first compound 1.265 µM) was 0.426, the relative viability (NCI-H2342; first compound 0.04 µM) was 0.41 and the relative viability (NCI-H2342; first compound 0.1265 µM) was 0.467. The relative viability (NCI-H2342; first compound 0.4 µM) was 0.535, the relative viability (NCI-H2342; first compound 1.265 µM) was 0.459 and the relative viability (NCI-H650; first compound 0.04 µM) was 1.03. The relative viability (NCI-H650; first compound 0.1265 µM) was 1.11, the relative viability (NCI-H650; first compound 0.4 µM) was 1.02 and the relative viability (NCI-H650; first compound 1.265 µM) was 0.947. For the same molecule, the relative viability (BEN; first compound 0.04 µM) was 0.529, the relative viability (BEN; first compound 0.1265 µM) was 0.775 and the relative viability (BEN; first compound 0.4 µM) was 0.698. The relative viability (BEN; first compound 1.265 µM) was 0.771, the relative viability (LC-2-ad; first compound 0.04 µM) was 0.853 and the relative viability (LC-2-ad; first compound 0.1265 µM) was 0.926. The relative viability (LC-2-ad; first compound 0.4 µM) was 0.835, the relative viability (LC-2-ad; first compound 1.265 µM) was 0.812 and the relative viability (PC-3 [JPC-3]; first compound 0.04 µM) was 0.693. For the same molecule, the relative viability (PC-3 [JPC-3]; first compound 0.1265 µM) was 0.967, the relative viability (PC-3 [JPC-3]; first compound 0.4 µM) was 0.806 and the relative viability (PC-3 [JPC-3]; first compound 1.265 µM) was 0.766. It also gave a relative viability (NCI-H838; first compound 0.04 µM) of 0.978, a relative viability (NCI-H838; first compound 0.1265 µM) of 1.07 and a relative viability (NCI-H838; first compound 0.4 µM) of 0.992. It also gave a relative viability (NCI-H838; first compound 1.265 µM) of 0.92, a relative viability (NCI-H322M; first compound 0.04 µM) of 0.585 and a relative viability (NCI-H322M; first compound 0.1265 µM) of 0.631. It also gave a relative viability (NCI-H322M; first compound 0.4 µM) of 0.625, a relative viability (NCI-H322M; first compound 1.265 µM) of 0.65 and a relative viability (ChaGo-K-1; first compound 0.04 µM) of 0.845. For the same molecule, the relative viability (ChaGo-K-1; first compound 0.1265 µM) was 1.02, the relative viability (ChaGo-K-1; first compound 0.4 µM) was 0.907 and the relative viability (ChaGo-K-1; first compound 1.265 µM) was 0.848. The relative viability (LXF-289; first compound 0.04 µM) was 1.07, the relative viability (LXF-289; first compound 0.1265 µM) was 1.25 and the relative viability (LXF-289; first compound 0.4 µM) was 1.02. It also gave a relative viability (LXF-289; first compound 1.265 µM) of 0.922, a relative viability (NCI-H358; first compound 0.04 µM) of 0.494 and a relative viability (NCI-H358; first compound 0.1265 µM) of 0.536. For the same molecule, the relative viability (NCI-H358; first compound 0.4 µM) was 0.456, the relative viability (NCI-H358; first compound 1.265 µM) was 0.452 and the relative viability (LK-2; first compound 0.04 µM) was 0.446. It also gave a relative viability (LK-2; first compound 0.1265 µM) of 0.614, a relative viability (LK-2; first compound 0.4 µM) of 0.373 and a relative viability (LK-2; first compound 1.265 µM) of 0.49. The relative viability (LU99A; first compound 0.04 µM) was 0.486, the relative viability (LU99A; first compound 0.1265 µM) was 0.522 and the relative viability (LU99A; first compound 0.4 µM) was 0.421. For the same molecule, the relative viability (LU99A; first compound 1.265 µM) was 0.411.
